What was measured:
[1] = system: Staphylococcus aureus-SMITH (GC 4543); assay: Acute lethal infection in mice (ED50); assay type: in vivo; conditions: female CD-1 mice, intraperitoneal challenge, intravenous dose 30 min. after infection, 7 day survival ratios
Method in brief: (§1)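 Female CD-1 mice (20 ± 1-2 g) were infected intraperitoneally with enough bacteria, suspended in Trypticase Soy Broth or hog gastric mucin, to kill untreated controls within 24-48 hr. Compound in saline or 5% dextrose was given intravenously 30 min after infection. ED50 came from pooled 7-day survival over 3 tests.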

[2] = system: Enterococcus faecalis (GC 6189), vancomycin resistant strain; assay: Acute lethal infection in mice (ED50); assay type: in vivo; conditions: female CD-1 mice, intraperitoneal challenge, intravenous dose 30 min. after infection, 7 day survival ratios
Method in brief: as §1

Streptococcus sp. = assay: In vitro antibacterial evaluation: minimum inhibitory concentration (MIC), broth dilution method; assay type: cell-based; conditions: broth dilution, 5×10^5 CFU/mL, 18 hours at 35° C.
Method in brief: (§2)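 An MIC is reported for each organism as the least concentration giving inhibition, using broth dilution over 64-0.06 μg/mL with a 5×10^5 CFU/mL inoculum.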

Enterococcus sp. = assay: as above; assay type: cell-based; conditions: broth dilution, 5×10^5 CFU/mL, 18 hours at 35° C.
Method in brief: as §2

Staphylococcus sp. = assay: as above; assay type: cell-based; conditions: for MIC Staphylococcus aureus (ATCC 29213): strain ATCC 29213; for MIC Staphylococcus aureus (GC 1131): strain GC 1131; for MIC Staphylococcus aureus (GC 3051): strain GC 3051; for MIC Staphylococcus aureus (GC 3053): strain GC 3053; for MIC Staphylococcus aureus (GC 4541): strain GC 4541; for MIC Staphylococcus aureus (GC 4542): strain GC 4542; for MIC Staphylococcus aureus-SMITH (GC 4543): strain GC 4543; for MIC Staphylococcus aureus (GC 4544): strain GC 4544; for MIC Staphylococcus aureus (GC 4545): strain GC 4545; for MIC Staphylococcus haemolyticus (GC 4546): strain GC 4546; for MIC Coagulase Negative Staphylococcus (GC 4547): strain GC 4547; for MIC Coagulase Negative Staphylococcus (GC 4548): strain GC 4548; for MIC Coagulase Negative Staphylococcus (GC 4549): strain GC 4549; for MIC Coagulase Negative Staphylococcus (GC 4551): strain GC 4551; for MIC Coagulase Negative Staphylococcus (GC 6257): strain GC 6257
Method in brief: as §2

Escherichia coli = assay: as above; assay type: cell-based; conditions: 5×10^5 CFU/mL, 18 hours at 35° C.
Method in brief: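 NCCLS M7-A2 broth dilution; Muller-Hinton II […]; 5×10^5 CFU/mL; 64-0.06 μg/mL. MIC = lowest concentration with no growth.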

[3] = broth dilution, 18 hours at 35° C.

CC(c1ccccc1)C1NC(=O)CNC(=O)C(CO)NC(=O)C(C(O)C2CNC(=N)N2C2OC(CO)C(O)C(O)C2O)NC(=O)C(C(O)C2CNC(=N)N2)NC(=O)C(Cc2ccc(OC3OC(CO)C(OC4OC5COC(Cc6ccc(F)cc6)OC5C(O)C4O)C(O)C3O)cc2)NC1=O (stereo not drawn) [Example 121, Cyclo[glycyl-β-methylphenylalanyl-O-[4-O-[4,6-O-(4-fluorophenethylidene)hexopyranosyl]-hexopyranosyl]tyrosyl-3-(2-iminoimidazolidin-4-yl)seryl-3-(3-hexopyranosyl-2-iminoimidazolidin-4-yl)serylseryl]]
0.5 mg/kg: median effective dose (ED50), Enterococcus faecalis (GC 6189) [2]
0.5 mg/L: MIC Coagulase Negative Staphylococcus (GC 4548) (Staphylococcus sp.) | MIC Coagulase Negative Staphylococcus (GC 4548) (Staphylococcus sp.; [3]) | MIC Coagulase Negative Staphylococcus (GC 4549) (Staphylococcus sp.) | MIC Coagulase Negative Staphylococcus (GC 4549) (Staphylococcus sp.; [3])
0.25 mg/L: MIC Streptococcus agalactiae (GC 4564) (Streptococcus sp.) | MIC Streptococcus pyogenes (GC 4563) (Streptococcus sp.)
2 mg/L: MIC Enterococccus faecalis (ATCC 29212) (Enterococcus sp.) | MIC Enterococccus faecalis (GC 3059) (Enterococcus sp.) | MIC Enterococccus faecalis (GC 4552) (Enterococcus sp.) | MIC Enterococccus faecalis (GC 4554) (Enterococcus sp.) | MIC Enterococccus faecalis (GC 6189) (Enterococcus sp.) | MIC Enterococccus faecium (GC 2243) (Enterococcus sp.) | MIC Enterococccus faecium (GC 4556) (Enterococcus sp.) | MIC Enterococccus faecium (GC 4557) (Enterococcus sp.) | MIC Enterococcus faecalis (GC 2242) (Enterococcus sp.) | MIC Staphylococcus aureus (GC 1131) (Staphylococcus sp.) | MIC Staphylococcus aureus (GC 1131) (Staphylococcus sp.; [3]) | MIC Staphylococcus aureus (GC 4544) (Staphylococcus sp.) | MIC Staphylococcus aureus (GC 4544) (Staphylococcus sp.; [3]) | MIC Staphylococcus aureus (GC 4545) (Staphylococcus sp.) | MIC Staphylococcus aureus (GC 4545) (Staphylococcus sp.; [3]) | MIC Coagulase Negative Staphylococcus (GC 4551) (Staphylococcus sp.) | MIC Coagulase Negative Staphylococcus (GC 4551) (Staphylococcus sp.; [3])
32 mg/L: MIC Escherichia coli (ATCC 25922) (Escherichia coli) | MIC Escherichia coli (GC 4559) (Escherichia coli)
<0.06 mg/L: MIC Streptococcus pneumoniae (GC 1894) (Streptococcus sp.) | MIC Streptococcus pneumoniae (GC 4565) (Streptococcus sp.) | MIC Streptococcus pneumonine (ATCC 6301) (Streptococcus sp.)
1 mg/L: MIC Staphylococcus aureus (ATCC 29213) (Staphylococcus sp.) | MIC Staphylococcus aureus (ATCC 29213) (Staphylococcus sp.; [3]) | MIC Staphylococcus aureus (GC 3051) (Staphylococcus sp.) | MIC Staphylococcus aureus (GC 3051) (Staphylococcus sp.; [3]) | MIC Staphylococcus aureus (GC 3053) (Staphylococcus sp.) | MIC Staphylococcus aureus (GC 3053) (Staphylococcus sp.; [3]) | MIC Staphylococcus aureus (GC 4541) (Staphylococcus sp.) | MIC Staphylococcus aureus (GC 4541) (Staphylococcus sp.; [3]) | MIC Staphylococcus aureus (GC 4542) (Staphylococcus sp.) | MIC Staphylococcus aureus (GC 4542) (Staphylococcus sp.; [3]) | MIC Staphylococcus aureus-SMITH (GC 4543) (Staphylococcus sp.; 18 hours at 35° C.) | MIC Staphylococcus aureus-SMITH (GC 4543) (Staphylococcus sp.; [3]) | MIC Staphylococcus haemolyticus (GC 4546) (Staphylococcus sp.) | MIC Staphylococcus haemolyticus (GC 4546) (Staphylococcus sp.; [3]) | MIC Coagulase Negative Staphylococcus (GC 4547) (Staphylococcus sp.) | MIC Coagulase Negative Staphylococcus (GC 4547) (Staphylococcus sp.; [3]) | MIC Coagulase Negative Staphylococcus (GC 6257) (Staphylococcus sp.) | MIC Coagulase Negative Staphylococcus (GC 6257) (Staphylococcus sp.; [3]) | MIC Escherichia coli (GC 4560) (Escherichia coli)
4 mg/L: MIC Enterococccus avium (GC 4558) (Enterococcus sp.) | MIC Enterococccus faecalis (GC 2691) (Enterococcus sp.) | MIC Enterococccus faecalis (GC 4553) (Enterococcus sp.)
0.32 mg/kg: median effective dose (ED50), Staphylococcus aureus-SMITH (GC 4543) [1]

CC(c1ccccc1)C1NC(=O)CNC(=O)C(CO)NC(=O)C(C(O)C2CNC(=N)N2C2OC(CO)C(O)C(O)C2O)NC(=O)C(C(O)C2CNC(=N)N2)NC(=O)C(Cc2ccc(OC3OC(CO)C(OC4OC5COC(C6CC=CCC6)OC5C(O)C4O)C(O)C3O)cc2)NC1=O (stereo not drawn) [Example 115, Cyclo[glycyl-β-methylphenylalanyl-O-[4-O-[4,6-O-(cyclohex-3-en-1-ylmethylene)hexopyranosyl]hexopyranosyl]tyrosyl-3-(2-iminoimidazolidin-4-yl)seryl-3-(3-hexopyranosyl-2-iminoimidazolidin-4-yl)serylseryl]]
0.5 mg/L: MIC Staphylococcus aureus (GC 4542) (Staphylococcus sp.) | MIC Staphylococcus aureus (GC 4542) (Staphylococcus sp.; [3]) | MIC Staphylococcus aureus (GC 4545) (Staphylococcus sp.) | MIC Staphylococcus aureus (GC 4545) (Staphylococcus sp.; [3]) | MIC Staphylococcus haemolyticus (GC 4546) (Staphylococcus sp.) | MIC Staphylococcus haemolyticus (GC 4546) (Staphylococcus sp.; [3]) | MIC Coagulase Negative Staphylococcus (GC 4548) (Staphylococcus sp.) | MIC Coagulase Negative Staphylococcus (GC 4548) (Staphylococcus sp.; [3]) | MIC Coagulase Negative Staphylococcus (GC 6257) (Staphylococcus sp.) | MIC Coagulase Negative Staphylococcus (GC 6257) (Staphylococcus sp.; [3])
4 mg/L: MIC Enterococccus faecalis (GC 4553) (Enterococcus sp.)
0.12 mg/L: MIC Streptococcus pneumoniae (GC 4565) (Streptococcus sp.)
2 mg/L: MIC Enterococccus avium (GC 4558) (Enterococcus sp.) | MIC Enterococccus faecalis (ATCC 29212) (Enterococcus sp.) | MIC Enterococccus faecalis (GC 2691) (Enterococcus sp.) | MIC Enterococccus faecalis (GC 3059) (Enterococcus sp.) | MIC Enterococccus faecalis (GC 4552) (Enterococcus sp.) | MIC Enterococccus faecalis (GC 4554) (Enterococcus sp.) | MIC Enterococccus faecalis (GC 6189) (Enterococcus sp.) | MIC Enterococccus faecium (GC 2243) (Enterococcus sp.) | MIC Enterococccus faecium (GC 4556) (Enterococcus sp.) | MIC Enterococccus faecium (GC 4557) (Enterococcus sp.) | MIC Enterococcus faecalis (GC 2242) (Enterococcus sp.)
0.36 mg/kg: median effective dose (ED50), Enterococcus faecalis (GC 6189) [2]
<0.06 mg/L: MIC Streptococcus pneumoniae (GC 1894) (Streptococcus sp.) | MIC Streptococcus pneumonine (ATCC 6301) (Streptococcus sp.)
64 mg/L: MIC Escherichia coli (GC 4559) (Escherichia coli)
0.25 mg/L: MIC Streptococcus agalactiae (GC 4564) (Streptococcus sp.) | MIC Streptococcus pyogenes (GC 4563) (Streptococcus sp.)
0.23 mg/kg: median effective dose (ED50), Staphylococcus aureus-SMITH (GC 4543) [1]
1 mg/L: MIC Staphylococcus aureus (ATCC 29213) (Staphylococcus sp.) | MIC Staphylococcus aureus (ATCC 29213) (Staphylococcus sp.; [3]) | MIC Staphylococcus aureus (GC 1131) (Staphylococcus sp.) | MIC Staphylococcus aureus (GC 1131) (Staphylococcus sp.; [3]) | MIC Staphylococcus aureus (GC 3051) (Staphylococcus sp.) | MIC Staphylococcus aureus (GC 3051) (Staphylococcus sp.; [3]) | MIC Staphylococcus aureus (GC 3053) (Staphylococcus sp.) | MIC Staphylococcus aureus (GC 3053) (Staphylococcus sp.; [3]) | MIC Staphylococcus aureus (GC 4541) (Staphylococcus sp.) | MIC Staphylococcus aureus (GC 4541) (Staphylococcus sp.; [3]) | MIC Staphylococcus aureus-SMITH (GC 4543) (Staphylococcus sp.; 18 hours at 35° C.) | MIC Staphylococcus aureus-SMITH (GC 4543) (Staphylococcus sp.; [3]) | MIC Staphylococcus aureus (GC 4544) (Staphylococcus sp.) | MIC Staphylococcus aureus (GC 4544) (Staphylococcus sp.; [3]) | MIC Coagulase Negative Staphylococcus (GC 4547) (Staphylococcus sp.) | MIC Coagulase Negative Staphylococcus (GC 4547) (Staphylococcus sp.; [3]) | MIC Coagulase Negative Staphylococcus (GC 4549) (Staphylococcus sp.) | MIC Coagulase Negative Staphylococcus (GC 4549) (Staphylococcus sp.; [3]) | MIC Coagulase Negative Staphylococcus (GC 4551) (Staphylococcus sp.) | MIC Coagulase Negative Staphylococcus (GC 4551) (Staphylococcus sp.; [3]) | MIC Escherichia coli (GC 4560) (Escherichia coli)
32 mg/L: MIC Escherichia coli (ATCC 25922) (Escherichia coli)

Reference: patent publication US8247211B2, “Glycopeptide antibiotics” (American Cyanamid Company, priority 2001, dated 2012)
